Legend:
[1] = system: S. cerevisiae Δrad6 mutants; test: Survival of S. cerevisiae Δrad6 mutants after ultraviolet radiation or MMS; assay type: cell-based, Saccharomyces cerevisiae; conditions: 100 μM; for rescue of the rad6 phenotype generated by treatment with MMS (survival): 0.03% MMS; for rescue of the rad6 phenotype induced by UV irradiation (survival): ultraviolet radiation
Procedure: To determine if compounds Ia and Ib inhibit the function of Ubc13p-Mms2p, their capacity to mimic in S. cerevisiae the DNA repair phenotypes generated by the null mutation of ubc13 was evaluated. Thus, mutant strains in RAD6 or REV3 and the parent strain thereof (control) were used in viability assays after the exposure to ultraviolet radiation or MMS. The genotypes of the strains used are the following:
2) Strain Δrad6: MAT at his3Δ1 leu2Δ0 lys2Δ0 ura3Δ0 rad6::kanMX4
Cells were inoculated in liquid cultures with YPD medium overnight at 30° C., until reaching the log phase of growth. For the treatments with ultraviolet radiation, aliquots of cells, grown in the presence or absence of 100 μM of compounds Ia or Ib were irradiated in a Stratalinker instrument (Stratagene) at the energies indicated in FIGS. 7 and 8. For the treatment with the mutagenic agent MMS, aliquots of cells grown or not in medium with 100 μM of compounds Ia or Ib were incubated, 0.03% MMS being added, with subsequent incubation for the times indicated in FIGS. 7 and 8. After either treatment, 500 cells were seeded in plates with YPD medium, counting the colonies after 2 days.

[2] = system: transcriptional activity of NF-κB induced by TNFα; test: NF-κB luciferase reporter assay, stimulation by TNFα in HeLa cells; assay type: cell-based; conditions: TNFα 10 ng/mL; for inhibition of the stimulation of the transcriptional activity of NF-κB induced by TNFα: HeLa cells, different concentrations
Procedure: To determine the activity of compounds Ia and Ib on the stimulation of the NFκ-B activity by TNFα, assays for inducing luciferase activity (determined with the Dual-Luciferase Reporter Assay System kit, Promega, catalog number E1910) generated by expression of the firefly (Photinus pyralis) luciferase gene directed by a promoter containing three recognition sites for NFκ-B were performed. To that end, HeLa cells were co-transfected with plasmid pRL-TK, encoding the Renilla reniformis Luciferase and being a transfection efficiency control, and plasmid prLUC, a plasmid which allows determining the transcriptional activity of NF-κB, using Fugene (Roche) as a transfection vehicle. 100,000 cells were seeded in 6-well plates (Costar). On the following day, the transfection complex was formed with 0.5 μg of each plasmid and 3 μl of Fugene for 15 minutes. The complex was added to the cells in Optimem medium (InVitrogen), and after 5 hours it was changed to complete medium (Dulbecco's Modified Eagle's Medium with 10% fetal bovine serum, 2 mM of glutamine, supplemented with penicillin and streptomycin), to which the compound Varubin (Ia) or Ib at different concentrations was added or not. On the following day, the cells were incubated with TNFα (10 ng/mL) for 4 hours, after which they were washed with phosphate buffered saline (PBS) and lysated with 250 μL of lysis buffer, following the manufacturer's (Promega) indications. 100 μL of luciferase reagent (LARII) were added to the lysate to measure the firefly luciferase activity, after which the reaction was stopped with 100 μL of stop buffer with Renilla reniformis luciferase substrate, this second activity being determined at that time. The firefly luciferase activity was standardized in relation to the Renilla luciferase activity. The values corresponding to cells transfected but not stimulated with TNFα were used as standardizers for the remaining experimental values. […]

Structure (SMILES) | rescue of the rad6 phenotype generated by treatment with MMS (survival) [1] | rescue of the rad6 phenotype induced by UV irradiation (survival) [1] | inhibition of the stimulation of the transcriptional activity of NF-κB induced by TNFα [2] | inhibition at 100 µM ([2]; Homo sapiens, HeLa cells pre-incubated at 100 μM, read-out: inhibition of the activation of NF-κB by TNFα)
NC(=O)CN(CCc1ccccn1)C(=O)C1CC(=O)N(CCc2ccc(F)cc2)CC(=O)N1CCc1ccc(F)cc1 (stereo not shown) [Ia, N-aminocarbamoylmethyl-N-(2′-(2″pyridyl)ethyl)-1,4-bis[2′-(4″-fluorophenyl)ethyl]-3,7-dioxo-[1,4]diazepane-5-carboxamide] | to a lesser extent | clearly rescued the rad6 phenotype | inhibits in a dose-dependent manner | ~50%
NC(=O)CN(CCc1ccccn1)C(=O)CC1C(=O)N(CCc2ccc(F)cc2)CC(=O)N1CCc1ccc(F)cc1 (stereo not shown) [Ib, 1,4-bis[2′-(4″-fluorophenyl)ethyl]-2-[N-aminocarbonylmethyl-N-(2′-(2″-pyridyl)ethyl)-carbonylmethyl]piperazine-3,6-dione] | to a lesser extent | clearly rescued the rad6 phenotype | inhibits in a dose-dependent manner | 
